Assay results as given in ChEMBL document CHEMBL1201862, “PubChem BioAssay data set” (2004).
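Dose response: 5 concentrations. Exposure: 48 h. Format: 96-well plates. Endpoint: linear interpolation; highest concentration if not reached. Abbreviation: GI50, concentration required for 50% inhibition of growth.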 Calls of active or inactive are those of the source. Cut-off read from the data, not from the text of the source: active = GI50 up to about 1.1 µM and inactive = higher.

Experiments:
Experiment in all cases: NCI tumour cell line growth inhibition, 48 h
786-0 = test system: 786-0
A549 = test system: A549
ACHN = test system: ACHN
BT-549 = test system: BT-549
CAKI-1 = test system: CAKI-1
CCRF-CEM = test system: CCRF-CEM
COLO 205 = test system: COLO 205
DU-145 = test system: DU-145
EKVX = test system: EKVX
HCC 2998 = test system: HCC 2998
HCT-116 = test system: HCT-116
HCT-15 = test system: HCT-15
HL-60 = test system: HL-60
HOP-62 = test system: HOP-62
HOP-92 = test system: HOP-92
HT-29 = test system: HT-29
IGROV-1 = test system: IGROV-1
K562 = test system: K562
M14 = test system: M14
MCF7 = test system: MCF7
MDA-N = test system: MDA-N
MOLT-4 = test system: MOLT-4
Malme-3M = test system: Malme-3M
NCI-H226 = test system: NCI-H226
NCI-H23 = test system: NCI-H23
NCI-H460 = test system: NCI-H460
NCI-H522 = test system: NCI-H522
NCI/ADR-RES = test system: NCI/ADR-RES
OVCAR-3 = test system: OVCAR-3
OVCAR-4 = test system: OVCAR-4
OVCAR-5 = test system: OVCAR-5
OVCAR-8 = test system: OVCAR-8
PC-3 = test system: PC-3
RXF 393 = test system: RXF 393
SF-268 = test system: SF-268
SF-295 = test system: SF-295
SF-539 = test system: SF-539
SK-MEL-28 = test system: SK-MEL-28
SK-MEL-5 = test system: SK-MEL-5
SK-OV-3 = test system: SK-OV-3
SN12C = test system: SN12C
SNB-19 = test system: SNB-19
SNB-75 = test system: SNB-75
SR = test system: SR
SW-620 = test system: SW-620
TK-10 = test system: TK-10
U-251 = test system: U-251
UACC-257 = test system: UACC-257
UACC-62 = test system: UACC-62
UO-31 = test system: UO-31
A498 = test system: A498
KM12 = test system: KM12
LOX IMVI = test system: LOX IMVI
MDA-MB-231 = test system: MDA-MB-231
MDA-MB-435 = test system: MDA-MB-435
SK-MEL-2 = test system: SK-MEL-2
T47D = test system: T47D
RPMI-8226 = test system: RPMI-8226

In the case of `CN(CCO)CCCC1COc2ccccc2O1` (stereo unspecified), the GI50 (786-0) is reported as > 100 µM (inactive), the GI50 (A549) is reported as > 100 µM (inactive) and the GI50 (ACHN) is reported as 63.8 µM (inactive). The GI50 (BT-549) was > 100 µM (inactive), the GI50 (CAKI-1) was > 100 µM (inactive) and the GI50 (CCRF-CEM) was > 100 µM (inactive). For the same molecule, the GI50 (COLO 205) was > 100 µM (inactive), the GI50 (DU-145) was > 100 µM (inactive) and the GI50 (EKVX) was 73.3 µM (inactive). The GI50 (HCC 2998) was > 100 µM (inactive), the GI50 (HCT-116) was > 100 µM (inactive) and the GI50 (HCT-15) was > 100 µM. For the same molecule, the GI50 (HL-60) was > 100 µM (inactive), the GI50 (HOP-62) was > 100 µM (inactive) and the GI50 (HOP-92) was > 100 µM (inactive). For the same molecule, the GI50 (HT-29) was > 100 µM (inactive), the GI50 (IGROV-1) was > 100 µM (inactive) and the GI50 (K562) was > 100 µM (inactive). The GI50 (M14) was > 100 µM (inactive), the GI50 (MCF7) was > 100 µM (inactive) and the GI50 (MDA-N) was > 100 µM (inactive). For the same molecule, the GI50 (MOLT-4) was > 100 µM (inactive), the GI50 (Malme-3M) was > 100 µM (inactive) and the GI50 (NCI-H226) was > 100 µM (inactive). The GI50 (NCI-H23) was > 100 µM (inactive), the GI50 (NCI-H460) was > 100 µM (inactive) and the GI50 (NCI-H522) was > 100 µM (inactive). For the same molecule, the GI50 (NCI/ADR-RES) was > 100 µM (inactive), the GI50 (OVCAR-3) was > 100 µM (inactive) and the GI50 (OVCAR-4) was > 100 µM (inactive). The GI50 (OVCAR-5) was > 100 µM (inactive), the GI50 (OVCAR-8) was > 100 µM (inactive) and the GI50 (PC-3) was > 100 µM (inactive). For the same molecule, the GI50 (RXF 393) was > 100 µM (inactive), the GI50 (SF-268) was 20.7 µM (inactive) and the GI50 (SF-295) was 51.3 µM (inactive). For the same molecule, the GI50 (SF-539) was > 100 µM (inactive), the GI50 (SK-MEL-28) was > 100 µM (inactive) and the GI50 (SK-MEL-5) was > 100 µM (inactive). The GI50 (SK-OV-3) was > 100 µM (inactive), the GI50 (SN12C) was > 100 µM (inactive) and the GI50 (SNB-19) was > 100 µM (inactive). The GI50 (SNB-75) was > 100 µM (inactive), the GI50 (SR) was > 100 µM (inactive) and the GI50 (SW-620) was > 100 µM (inactive). The GI50 (TK-10) was > 100 µM (inactive), the GI50 (U-251) was > 100 µM (inactive) and the GI50 (UACC-257) was > 100 µM (inactive). The GI50 (UACC-62) was > 100 µM (inactive) and the GI50 (UO-31) was > 100 µM (inactive).

For `CC(=O)/N=C1\NC(=O)/C(=C/c2ccc(/C=C3/C(=O)N/C(=N\C(C)=O)N3C)cc2)N1C`, the GI50 (786-0) was > 100 µM (inactive), the GI50 (A498) was > 100 µM (inactive) and the GI50 (A549) was > 100 µM (inactive). For the same molecule, the GI50 (ACHN) was > 100 µM (inactive), the GI50 (BT-549) was > 100 µM (inactive) and the GI50 (CAKI-1) was > 100 µM (inactive). For the same molecule, the GI50 (COLO 205) was > 100 µM (inactive), the GI50 (DU-145) was > 100 µM (inactive) and the GI50 (EKVX) was > 100 µM (inactive). The GI50 (HCC 2998) was > 100 µM (inactive), the GI50 (HCT-116) was > 100 µM (inactive) and the GI50 (HCT-15) was > 100 µM. The GI50 (HL-60) was 47.3 µM (inactive), the GI50 (HOP-62) was > 100 µM (inactive) and the GI50 (HOP-92) was > 100 µM (inactive). The GI50 (HT-29) was > 100 µM (inactive), the GI50 (IGROV-1) was > 100 µM (inactive) and the GI50 (KM12) was > 100 µM (inactive). The GI50 (LOX IMVI) was > 100 µM (inactive), the GI50 (M14) was > 100 µM (inactive) and the GI50 (MCF7) was > 100 µM (inactive). For the same molecule, the GI50 (MDA-MB-231) was > 100 µM (inactive), the GI50 (MDA-MB-435) was > 100 µM (inactive) and the GI50 (MDA-N) was > 100 µM (inactive). The GI50 (MOLT-4) was > 100 µM (inactive), the GI50 (NCI-H226) was > 100 µM (inactive) and the GI50 (NCI-H23) was > 100 µM (inactive). For the same molecule, the GI50 (NCI-H460) was > 100 µM (inactive), the GI50 (NCI/ADR-RES) was > 100 µM (inactive) and the GI50 (OVCAR-3) was > 100 µM (inactive). For the same molecule, the GI50 (OVCAR-4) was > 100 µM (inactive), the GI50 (OVCAR-5) was > 100 µM (inactive) and the GI50 (OVCAR-8) was > 100 µM (inactive). For the same molecule, the GI50 (RXF 393) was > 100 µM (inactive), the GI50 (SF-268) was > 100 µM (inactive) and the GI50 (SF-295) was > 100 µM (inactive). The GI50 (SF-539) was > 100 µM (inactive), the GI50 (SK-MEL-28) was > 100 µM (inactive) and the GI50 (SK-MEL-2) was > 100 µM (inactive). The GI50 (SK-MEL-5) was > 100 µM (inactive), the GI50 (SK-OV-3) was > 100 µM (inactive) and the GI50 (SN12C) was > 100 µM (inactive). The GI50 (SNB-19) was > 100 µM (inactive), the GI50 (SNB-75) was > 100 µM (inactive) and the GI50 (SW-620) was > 100 µM (inactive). The GI50 (T47D) was > 100 µM (inactive), the GI50 (TK-10) was > 100 µM (inactive) and the GI50 (U-251) was > 100 µM (inactive). For the same molecule, the GI50 (UACC-257) was > 100 µM (inactive), the GI50 (UACC-62) was > 100 µM (inactive) and the GI50 (UO-31) was > 100 µM (inactive).

With `COC(CCC[N+](C)(C)C)CC[N+](C)(C)C` (stereo unspecified) the GI50 (786-0) was > 100 µM (inactive), the GI50 (A549) was > 100 µM (inactive) and the GI50 (ACHN) was > 100 µM (inactive). The GI50 (BT-549) was > 100 µM (inactive), the GI50 (CAKI-1) was > 100 µM (inactive) and the GI50 (CCRF-CEM) was > 100 µM (inactive). For the same molecule, the GI50 (COLO 205) was > 100 µM (inactive), the GI50 (DU-145) was > 100 µM (inactive) and the GI50 (EKVX) was > 100 µM (inactive). For the same molecule, the GI50 (HCC 2998) was > 100 µM (inactive), the GI50 (HCT-116) was > 100 µM (inactive) and the GI50 (HCT-15) was > 100 µM. The GI50 (HL-60) was > 100 µM (inactive), the GI50 (HOP-62) was > 100 µM (inactive) and the GI50 (HT-29) was > 100 µM (inactive). The GI50 (IGROV-1) was > 100 µM (inactive), the GI50 (K562) was > 100 µM (inactive) and the GI50 (M14) was > 100 µM (inactive). For the same molecule, the GI50 (MCF7) was > 100 µM (inactive), the GI50 (MDA-N) was > 100 µM (inactive) and the GI50 (MOLT-4) was > 100 µM (inactive). The GI50 (Malme-3M) was > 100 µM (inactive), the GI50 (NCI-H226) was > 100 µM (inactive) and the GI50 (NCI-H23) was > 100 µM (inactive). For the same molecule, the GI50 (NCI-H460) was > 100 µM (inactive), the GI50 (NCI-H522) was > 100 µM (inactive) and the GI50 (NCI/ADR-RES) was > 100 µM (inactive). For the same molecule, the GI50 (OVCAR-3) was > 100 µM (inactive), the GI50 (OVCAR-4) was > 100 µM (inactive) and the GI50 (OVCAR-5) was > 100 µM (inactive). For the same molecule, the GI50 (OVCAR-8) was > 100 µM (inactive), the GI50 (PC-3) was > 100 µM (inactive) and the GI50 (RPMI-8226) was > 100 µM (inactive). For the same molecule, the GI50 (RXF 393) was > 100 µM (inactive), the GI50 (SF-268) was > 100 µM (inactive) and the GI50 (SF-295) was > 100 µM (inactive). The GI50 (SF-539) was > 100 µM (inactive), the GI50 (SK-MEL-28) was > 100 µM (inactive) and the GI50 (SK-MEL-5) was > 100 µM (inactive). The GI50 (SK-OV-3) was > 100 µM (inactive), the GI50 (SN12C) was > 100 µM (inactive) and the GI50 (SNB-19) was > 100 µM (inactive). For the same molecule, the GI50 (SNB-75) was > 100 µM (inactive), the GI50 (SR) was > 100 µM (inactive) and the GI50 (SW-620) was > 100 µM (inactive). For the same molecule, the GI50 (TK-10) was > 100 µM (inactive), the GI50 (U-251) was > 100 µM (inactive) and the GI50 (UACC-257) was > 100 µM (inactive). For the same molecule, the GI50 (UACC-62) was > 100 µM (inactive) and the GI50 (UO-31) was > 100 µM (inactive).
